# Source: patent US6365597B1, “4-aza steroids” (Aventis Pharmaceuticals Inc., priority 1996, dated 2002)
structure (smiles),measurement,value
"CC12CCC3C(CC[C@H]4NC(=O)CCC34C)C1CC[C@@H]2OC1CC1 (stereo partly drawn) [MDL 103,432, 17β-Cyclopropyloxy-4-aza-5α-androstan-3-one]",melting point,237.5 to 238.5 °C
